Assays:
[1] = test system: dopamine, DOPAC and 5-HIAA in the striatum; experiment: Microdialysis in rat striatum (freely moving rats; dopamine, DOPAC and 5-HIAA by HPLC with electrochemical detection); type: in vivo
Description: Microdialysis in Rat Striatum Standard microdialysis experiments were performed on-line in freely moving rats. The striatum was perfused with a Ringer solution and dopamine, DOPAC and 5-HIAA were quantified by HPLC with electrochemical detection.

[2] = after S-3-OTf-3-PPP-N-ox (13) 100 μmol/kg p.o.; between 0 h and 6 h; sampled every 1 h
Description: 3-OTf-3-PPP-N-ox was measured at Rt=11.68 min with a +MRM of 368/235. Precursor 3-OTf-3-PPP was measured at Rt=11.50 min with a +MRM of 352/219.

[3] = oral administration, 91 μmol/kg

CCC[N+]1([O-])CCCC(c2cccc(OS(=O)(=O)C(F)(F)F)c2)C1 (centres unmarked) [S-3-PPP triflate-N-oxide, S-Trifluoromethanesulfonic acid 3-(1-propyl-piperidin-3-yl)-phenyl ester-1-oxide]
3,4-dihydroxyphenylacetic acid (DOPAC) level, maximum ([1]; 100 μmol/kg per os): ~150% | dopamine (DA) level, maximum ([1]; 100 μmol/kg per os): about 230% | level of 5-hydroxyindolacetic acid (HIAA) ([1]; 100 μmol/kg per os): around 100% | time of maximum of DA and DOPAC level ([1]; 100 μmol/kg per os): about 120 minutes | course of DA and DOPAC levels after the maximum ([1]; 100 μmol/kg per os, whole experiment (6 h)): constant over the whole experiment | pharmacological effect and duration of action ([1]; microdialysis in rat striatum): pronounced pharmacological effect with a very long duration of action

CCC[N+]1([O-])CCC(c2cccc(S(C)(=O)=O)c2)CC1 (centres unmarked) [ACR16 N-oxide, 4-(3-Methanesulfonyl-phenyl)-1-propyl-piperidine-1-oxide]
3,4-dihydroxyphenylacetic acid (DOPAC) level ([1]; 50 μmol/kg per os): slight rise | dopamine (DA) level ([1]; 50 μmol/kg per os, after about 45 minutes): considerable rise | 3,4-dihydroxyphenylacetic acid (DOPAC) level ([1]; 100 μmol/kg per os given at 180 minutes after a first 50 μmol/kg per os): goes up | level of dopamine, maximum height ([1]; 100 μmol/kg per os given at 180 minutes after a first 50 μmol/kg per os, peak after 240 minutes): more than 250 % of controls

CCCN1CCC[C@@H](c2cccc(OS(=O)(=O)C(F)(F)F)c2)C1 [(−)-3-PPP triflate, S-3-Trifluoro-methanesulfonyloxy-(1-n-propyl-phenyl)piperidine, reference compound]
striatal concentration of the precursor after dosing of the N-oxide [2]: continuous rise | 3,4-dihydroxyphenylacetic acid (DOPAC) level, maximum ([1]; 100 μmol/kg per os): about 175% | dopamine (DA) level, maximum ([1]; 100 μmol/kg per os): about 175% | level of 5-hydroxyindolacetic acid (HIAA) ([1]; 100 μmol/kg per os): around 100% | time of maximum of DA and DOPAC level ([1]; 100 μmol/kg per os): about 150 minutes | levels of dopamine and DOPAC after about 195 minutes ([1]; 100 μmol/kg per os, after about 195 minutes (3.25 hours)): decrease | dopamine level, second rise ([1]; 100 μmol/kg per os, after about 240 minutes (4 hours)): 350 % of controls

CCC[N+]1([O-])CC=C(c2cccc(S(C)(=O)=O)c2)CC1 (centres unmarked) [ACR16-ene-N-ox, 4-(3-Methanesulfonyl-phenyl)-1-propyl-1,2,3,6-tetrahydro-pyridine-N-oxide]
DA release [1, 3]: about 300 % of controls | DOPAC release [1, 3]: about 300 % of controls | duration of the effects on DA and DOPAC release [1, 3]: > 4 h
